Values joined by “and” are separate entries in the source; they are usually repeats but may differ in a detail not shown here. Equal entries are not always repeated.

In test [1] the test system is photosynthetic electron transport (PET) in spinach chloroplasts. Also noted: method as in earlier work. The conditions noted are these: standard DCMU; ref [56]; cited from earlier work.
In a further test the test system is Chlorella vulgaris. In words: Reduction of chlorophyll content in green algae Chlorella vulgaris. In kind it is cell-based, Chlorella vulgaris Beij. Particulars: 168 h, read-out: Chlorella vulgaris IC50 (50% reduction of chlorophyll content), 7-day cultivation.

Procedure for Chlorella vulgaris: (photoperiod 16 h light/8 h dark; photosynthetically active radiation (PAR) 80 μmol/m^2s; pH 7.2). The effect of rhodanine compounds on algal chlorophyll (Chl) content was determined after 7-day cultivation in the presence of the compounds tested, expressing the response as percentage of the corresponding values obtained for control. The Chl content in the algal suspension was determined spectrophotometrically (Genesys 6, Thermo Scientific, USA) after extraction into methanol according to Wellburn [58].

For `CN(C)C(=O)Nc1ccc(Cl)c(Cl)c1` [DCMU, 3-(3,4-dichlorophenyl)-1,1-dimethylurea], the IC50 in test [1] is ~1900 nM and 1900 nM; with Chlorella vulgaris, about 7300 nM.
